{"source": "patent US20140072567A1", "about": "“Methods Of Treating And Preventing Glucose Toxicity” (Walter and Eliza Hall Institute of Medical Research, ACN …, priority 2008, published 2014)", "key": {"iNOS": {"tested_on": "iNOS", "test": "Western blotting for iNOS expression in islets", "type": "cell-based, mice", "conditions": "islets cultured in high glucose (33.3 mM) in the presence of IFNγ", "description": "(§1) FIG. 2: IL-1β or Fas are not required for glucose or ribose induced beta cell apoptosis. (A) 200 islets from wild-type, IL-1R^−/− and B6^lpr/lpr mice were cultured for 6 days in 5.6 mM low glucose medium (unt) or 33.3 mM D-glucose or for 4 days in 50 mM ribose. DNA fragmentation was measured by flow cytometry. (B) 100 wild-type islets were cultured for 7 days in 5.6 mM or 33.3 mM D-glucose with cytokines added in the last 4 days and iNOS expression, NO production and DNA fragmentation was measured. Representative Western blot for iNOS expression (β-actin used as loading control). (C) NO2 determination of culture supernatant (D) DNA fragmentation was measured by flow cytometry. (E) Wild-type islets were cultured in 50 mM ribose or cytokines for 2 days, 33.3 mM D-glucose for 4 days (solid lines) compared to islets cultured in 5.6 mM D-glucose (broken lines). Fas expression on β cells was analysed by FACS analysis. (F) Wild-type islets cultured for 7 days in 5.6 mM (−) or 33.3 mM (+) glucose with cytokines or FasL added in the last 4 days. The data represent the mean±S.E.M of three experiments. Islets were incubated for 4 days with cytokines and 33.3 mM glucose, transferred to microcentrifuge tubes and washed three times in PBS. […]"}, "[1]": {"tested_on": "islets from wild type C57BL/6 mice", "test": "DNA fragmentation assay (sub-diploid DNA, flow cytometry)", "type": "cell-based", "conditions": "for DNA fragmentation: wild-type islets", "description": "Uniformly sized islets (excluding very large or necrotic islets) were handpicked into 3.5 cm Petri dishes containing 1.1 mL of complete CMRL. Islets were then cultured with the appropriate stimuli to cause DNA fragmentation. At the end of the culture period, non-attached cells and islets were transferred into polypropylene tubes and washed in PBS. Islets were then dispersed with trypsin (0.1 mg/mL bovine trypsin (Calbiochem) and 2 mmol/L EDTA in PBS) for 5 min at 37° C. Islets were mechanically dispersed using a pipette, washed in PBS, and allowed to recover in complete CMRL medium for 1 h at 37° C. in 5% CO2. Cells were then washed in PBS and resuspended in 250 μL of hypotonic buffer containing 50 mg/mL propidium iodide (Sigma-Aldrich), 0.1% sodium citrate, and 0.1% TritonX-100 which stains nuclear DNA. The cells were then analyzed on a FACSCalibur (Becton Dickinson, Franklin Lakes, N.J., USA) using the FL3 channel. Cells undergoing apoptosis were identified by their sub-diploid DNA content as previously described (Riccardi and Nicoletti, 2006)."}, "[2]": {"tested_on": "islets from wild-type mice", "test": "Cytochrome c release from mitochondria (flow cytometry)", "type": "cell-based", "description": "FIG. 1: Wild-type islets cultured in high concentrations of glucose or ribose undergo DNA fragmentation and mitochondrial release of cytochrome C, both indicative of apoptosis, and have a reduced ability to secrete insulin. (A) 200 islets from wild-type C57BL/6 mice were either cultured in low glucose medium (5.6 mM) (unt) or cultured in high glucose media (33.3 mM) for 6 days or high ribose medium (50 mM) for 4 days and DNA fragmentation was measured. Representative flow cytometry profiles are shown i). Data represent islets from 13-17 individual mice per group ii). Statistical significance; *p<0.001 compared with unt (one-way ANOVA). (B) 100 islets from wild-type mice were cultured under conditions mentioned above for 4 and 3 days respectively and cytochrome C release was measured. Representative flow cytometry profiles are shown i). Data represent islets from 4 individual mice per group. ii) Statistical significance; *p<0.001 ** p<0.05 compared with unt (one-way ANOVA). (C) wild-type islets were cultured in high concentrations of ribose (50 mM) for 2 days and insulin release was measured after glucose stimulation. Statistical significance; *p<0.01 compared with unt (one-way ANOVA). […]"}, "bim": {"tested_on": "bim", "test": "Real-time qRT-PCR of islets, bim", "type": "cell-based, mice", "conditions": "for up-regulation of bim mRNA: islets exposed to high concentrations of glucose or ribose", "description": "(§2) FIG. 7: Ribose induces expression of Puma and Bax in islets. Quantitative RT-PCR of wild-type islets cultured in control medium or medium containing 50 mM ribose, 33.3 mM glucose or 5 μM thapsigargin for 24 or 48 h. Relative RNA expression levels for (A) Puma (B) Bim and (C) Bax were calculated by normalizing to the signal for β-actin in each sample and comparison to islets cultured in control medium. Mean±SEM of 3-4 independent experiments is shown. Statistical significance *p<0.05, **p<0.01 compared with control (two-tailed paired t-test). RNA was prepared using the RNeasy Kit (Qiagen). First strand cDNA was prepared from 0.1-0.2 μg RNA using the High Capacity RNA-to-cDNA Master Mix (Applied Biosystems). Real-time PCR was performed using the ABI Prism 7900 (Applied Biosystems) and the Power SYBR Green PCR Master Mix (Applied Biosystems) in 15 μl reaction volumes. Data analyses were performed with the CT method using actin as an internal control. qRT-PCR was performed using the following forward and reverse primers (a kind gift from Drs DCS Huang and M Narita) (Table 1)."}, "Fas": {"tested_on": "Fas", "test": "Fas expression on islet beta cells by flow cytometry", "type": "cell-based, mice", "conditions": "high glucose (33.3 mM, 4 days) compared to untreated controls", "description": "as §1, with “Islets cells” for “Islets”, “analysed” for “incubated”, “expression of Fas by flow cytometry as previously described (Thomas et al., 1999). Islets were dispersed into single cells as described above” for “4 days with cytokines”, “stained using standard procedures.” for “33.3 mM glucose, transferred to microcentrifuge tubes and washed three times in PBS.”"}, "bax": {"tested_on": "bax", "test": "Real-time qRT-PCR of islets, bax", "type": "cell-based, mice", "description": "as §2"}, "wild type islets": {"tested_on": "wild type islets", "test": "Glucose-stimulated insulin secretion assay", "type": "cell-based, mice", "conditions": "wild type islets exposed to ribose (50 mM) for two days", "description": "Insulin secretion assays were performed as previously described (Thomas et al., 2002). Two hundred islets were cultured in complete CMRL and ribose for 2 days, then washed three times in Krebs-Ringer bicarbonate buffer (KRB; 25 mmol/l HEPES, 115 mmol/l NaCl, 24 mmol/l NaHCO3, 5 mmol/l MgCl2, 2.5 mmol/l CaCl2, pH 7.4) with 3 mmol/l glucose and 0.1% BSA. Groups of 20 islets in quadruplicate were incubated for 30 min in 200 μl KRB containing 3 mmol/l glucose under 5% CO2/95% air with shaking at 37° C., followed by a second incubation in 200 μl KRB containing either 3 or 20 mmol/l glucose. Buffer was sampled for insulin after 30 min using a mouse insulin ELISA kit (Linco Research, Mo., USA)."}, "puma": {"tested_on": "puma", "test": "Real-time qRT-PCR of islets, puma", "type": "cell-based, mice", "description": "as §2"}, "bak": {"tested_on": "bak", "test": "Real-time qRT-PCR of islets, bak", "type": "cell-based, mice", "conditions": "5 μM thapsigargin, data not shown", "description": "as §2"}}}
{"molecule": "O=C[C@H](O)[C@@H](O)[C@H](O)[C@H](O)CO", "note": "[D-glucose]", "values": [{"measurement": "iNOS expression", "setting": "iNOS", "value": "no iNOS expression"}, {"measurement": "DNA fragmentation", "setting": "[1]; 33.3 mM D-glucose, 6 days, compared to low glucose media (5.6 mM)", "value": "modest but significant increase"}, {"measurement": "release of cytochrome c from the mitochondria", "setting": "[2]; high glucose (33.3 mM), 4 days, compared to untreated islets", "value": "significant increase"}, {"measurement": "up-regulation of bim mRNA", "setting": "bim", "value": "no up-regulation"}, {"measurement": "Fas expression on islet cells", "setting": "Fas", "value": "slight but insignificant rise"}]}
{"molecule": "O=C[C@H](O)[C@H](O)[C@H](O)CO", "note": "[ribose, D-ribose]", "values": [{"measurement": "DNA fragmentation", "setting": "[1]; 50 mM ribose, 4-day period, compared to high concentrations of glucose", "value": "significantly more DNA fragmentation"}, {"measurement": "increase in expression of bax", "setting": "bax; 50 mM ribose, 48 h", "value": 4, "unit": "fold"}, {"measurement": "insulin secretory function after glucose stimulation", "setting": "wild type islets", "value": "significant loss"}, {"measurement": "release of cytochrome c from the mitochondria", "setting": "[2]; high ribose (50 mM), 3 days, compared to high glucose", "value": "more pronounced"}, {"measurement": "up-regulation of bim mRNA", "setting": "bim", "value": "no up-regulation"}, {"measurement": "Bim expression", "setting": "bim; ribose incubation (50 mM)", "value": "remained unchanged"}, {"measurement": "increase in expression of puma", "setting": "puma; 50 mM ribose, 48 h", "value": 4, "unit": "fold"}]}
{"molecule": "C/C=C(/C)C(=O)O[C@H]1C(C)=C2[C@H]([C@@H]1OC(=O)CCCCCCC)[C@@](C)(OC(C)=O)C[C@H](OC(=O)CCC)[C@@]1(O)[C@H]2OC(=O)[C@@]1(C)O", "note": "[thapsigargin, reference compound]", "values": [{"measurement": "increase in expression of bax", "setting": "bax; 5 μM thapsigargin, 24 or 48 h", "value": "2-7 fold"}, {"measurement": "increase in expression of bim", "setting": "bim; 5 μM thapsigargin", "value": "not"}, {"measurement": "increase in expression of puma", "setting": "puma; 5 μM thapsigargin, 24 or 48 h", "value": "2-7 fold"}, {"measurement": "increase in expression of bak", "setting": "bak", "value": "2-7 fold"}]}
{"molecule": "z-Val-Ala-Aspfluoromethylketone [z-VAD.fmk, reference compound]", "values": [{"measurement": "inhibition of ribose-induced islet cell DNA fragmentation", "setting": "[1]; pan-caspase inhibitor used at 100 μmol/L", "value": "significantly inhibited"}]}
